Results taken from patent US8415272B2, “Quinoline derivatives and their use as fungicides” (Syngenta Crop Protection LLC, priority 2008, dated 2013).

Key:
[1] = tested on: Septoria nodorum; assay: Leaf disk assay, Septoria nodorum (wheat glume blotch), preventive; format: in vivo; conditions: Parastagonospora nodorum, foliar, 96 h, wheat leaf segments, assessed four days after inoculation, read-out: control of fungal infection, Septoria nodorum
[2] = tested on: Plasmopara viticola; assay: Leaf disk assay, Plasmopara viticola (downy mildew of grapevine), preventive; format: in vivo; conditions: foliar, 168 h, grapevine leaf disks, assessed seven days after inoculation, read-out: control of fungal infection, Plasmopara viticola
[3] = tested on: Erysiphe graminis f.sp. tritici; assay: Leaf disk assay, Erysiphe graminis f.sp. tritici (wheat powdery mildew), preventive; format: in vivo; conditions: Blumeria graminis, foliar, 96 h, wheat leaf segments, assessed four days after inoculation, read-out: control of fungal infection, Erysiphe graminis f.sp. tritici
Method: The compounds were tested in a leaf disk assay, with methods described below. The test compounds were dissolved in DMSO and diluted into water to 200 ppm. In the case of the test on Pythium ultimum, they were dissolved in DMSO and diluted into water to 20 […] graminis f.sp. tritici (wheat powdery mildew): Wheat leaf segments were placed on agar in a 24-well plate and sprayed with a solution of the test compound. After allowing to dry completely, for between 12 and 24 hours, the leaf disks were inoculated with a spore suspension of the fungus. After appropriate incubation the activity of a compound was assessed four days after inoculation as preventive fungicidal activity.

[4] = tested on: Septoria tritici; assay: Growth inhibition in nutrient broth, Septoria tritici (leaf blotch), photometric; format: cell-based; conditions: Zymoseptoria tritici, PDB broth, 24 C, 72 hrs, read-out: control of fungal infection, Septoria tritici
[5] = tested on: Phytophthora infestans; assay: whole plant or invertebrate; format: in vivo; conditions: in Solanum lycopersicum, foliar, 96 h, read-out: control of fungal infection, Phytophthora infestans
[6] = tested on: Puccinia recondita f.sp. tritici; assay: Leaf disk assay, Puccinia recondita f.sp. tritici (wheat brown rust), preventive; format: in vivo; conditions: foliar, 216 h, wheat leaf segments, assessed nine days after inoculation, read-out: control of fungal infection, Puccinia recondita f.sp. tritici
[7] = tested on: Pythium ultimum; assay: Growth inhibition in potato dextrose broth, Pythium ultimum (damping off), photometric; format: cell-based; conditions: Globisporangium ultimum, 24° C., 48 hours, read-out: control of fungal infection, Pythium ultimum
Method: The compounds were tested in a leaf disk assay, with methods described below. The test compounds were dissolved in DMSO and diluted into water to 200 ppm. In the case of the test on Pythium ultimum, they were dissolved in DMSO and diluted into water to 20 ppm. Pythium ultimum (Damping off): Mycelial fragments of the fungus, prepared from a fresh liquid culture, were mixed into potato dextrose broth. A solution of the test compound in dimethyl sulphoxide was diluted with water to 20 ppm then placed into a 96-well microtiter plate and the nutrient broth containing the fungal spores was added. The test plate was incubated at 24° C. and the inhibition of growth was determined photometrically after 48 hours.

C#Cc1cnc2c(C)cc(OC(CC)C(=O)NC(C)(C)C#CCOC)cc2c1 (stereo not drawn) [Example 112]
≥ 60%: pest or weed control at 200 ppm [1] | pest or weed control at 200 ppm [2] | pest or weed control at 200 ppm [3] | inhibition of growth at 60 ppm [4] | pest or weed control at 200 ppm [5] | pest or weed control at 200 ppm [6]

C#Cc1cnc2ccc(OC(SC)C(=O)NC3(CO)CCC3)cc2c1 (stereo not drawn) [Example 148]
≥ 60%: pest or weed control at 200 ppm [2] | pest or weed control at 200 ppm [3] | inhibition of growth at 60 ppm [4] | pest or weed control at 200 ppm [5] | pest or weed control at 200 ppm [6]

C#Cc1cnc2ccc(OC(OC)C(=O)NC(C)(C#C)COC)cc2c1 (stereo not drawn) [Example 155]
≥ 60%: pest or weed control at 200 ppm [1] | pest or weed control at 200 ppm [3] | pest or weed control at 200 ppm [6]

COCC#CC(C)(C)NC(=O)C(Oc1ccc2ncc(C#CCO)cc2c1)SC (stereo not drawn) [Example 49]
≥ 60%: inhibition of growth at 20 ppm [7] | pest or weed control at 200 ppm [2] | pest or weed control at 200 ppm [5] | pest or weed control at 200 ppm [6]

C#Cc1cnc2ccc(OC(OC)C(=O)NC(C)(C)C#CC)cc2c1 (stereo not drawn) [Example 86]
≥ 60%: pest or weed control at 200 ppm [1] | pest or weed control at 200 ppm [2] | pest or weed control at 200 ppm [3] | inhibition of growth at 60 ppm [4] | pest or weed control at 200 ppm [5] | pest or weed control at 200 ppm [6]

C#Cc1cnc2c(C)cc(OC(SC)C(=O)NC(C)(C=O)COC)cc2c1 (stereo not drawn) [Example 134]
≥ 60%: pest or weed control at 200 ppm [1] | pest or weed control at 200 ppm [2] | pest or weed control at 200 ppm [3] | inhibition of growth at 60 ppm [4] | pest or weed control at 200 ppm [5] | pest or weed control at 200 ppm [6]

C#Cc1cnc2cc(F)c(OC(SC)C(=O)NC(C)(C)C(=O)OC)cc2c1 (stereo not drawn) [Example 105]
≥ 60%: pest or weed control at 200 ppm [1] | pest or weed control at 200 ppm [2] | pest or weed control at 200 ppm [3] | inhibition of growth at 60 ppm [4] | pest or weed control at 200 ppm [5] | pest or weed control at 200 ppm [6]

C#Cc1cnc2ccc(OC(SC)C(=O)NC)cc2c1 (stereo not drawn) [Example 96]
≥ 60%: inhibition of growth at 20 ppm [7] | pest or weed control at 200 ppm [1] | pest or weed control at 200 ppm [2] | pest or weed control at 200 ppm [3] | inhibition of growth at 60 ppm [4] | pest or weed control at 200 ppm [5]

C#Cc1cnc2ccc(OC(SC)C(=O)NC3(C#N)CCC3)cc2c1 (stereo not drawn) [Example 83]
≥ 60%: pest or weed control at 200 ppm [1] | pest or weed control at 200 ppm [2] | pest or weed control at 200 ppm [3] | inhibition of growth at 60 ppm [4] | pest or weed control at 200 ppm [5] | pest or weed control at 200 ppm [6]

C#Cc1cnc2ccc(OC(SC)C(=O)NC(C)(C)CCOC)cc2c1 (stereo not drawn) [Example 85]
≥ 60%: inhibition of growth at 20 ppm [7] | pest or weed control at 200 ppm [1] | pest or weed control at 200 ppm [2] | pest or weed control at 200 ppm [3] | inhibition of growth at 60 ppm [4] | pest or weed control at 200 ppm [5] | pest or weed control at 200 ppm [6]

C#CCOCC1(NC(=O)C(Oc2ccc3ncc(C#C)cc3c2)SC)CCC1 (stereo not drawn) [Example 152]
≥ 60%: pest or weed control at 200 ppm [1] | pest or weed control at 200 ppm [2] | pest or weed control at 200 ppm [3] | inhibition of growth at 60 ppm [4] | pest or weed control at 200 ppm [5]

C#Cc1cnc2c(F)c(F)c(OC(SC)C(=O)NC(C)(C)C#CCOC)cc2c1 (stereo not drawn) [Example 215]
≥ 60%: inhibition of growth at 20 ppm [7] | pest or weed control at 200 ppm [2] | pest or weed control at 200 ppm [3] | inhibition of growth at 60 ppm [4] | pest or weed control at 200 ppm [5] | pest or weed control at 200 ppm [6]

C#Cc1cnc2ccc(OC(SC)C(=O)NC(C)(C#C)CO)cc2c1 (stereo not drawn) [Example 173]
≥ 60%: inhibition of growth at 20 ppm [7] | pest or weed control at 200 ppm [1] | pest or weed control at 200 ppm [2] | pest or weed control at 200 ppm [3] | pest or weed control at 200 ppm [5]

CC#Cc1cnc2ccc(OC(SC)C(=O)NC(C)(C#N)COC)cc2c1 (stereo not drawn) [Example 53]
≥ 60%: inhibition of growth at 20 ppm [7] | pest or weed control at 200 ppm [1] | inhibition of growth at 60 ppm [4] | pest or weed control at 200 ppm [5]

C#Cc1cnc2ccc(OC(OC)C(=O)NC(C)(C#N)COC)cc2c1 (stereo not drawn) [Example 128]
≥ 60%: inhibition of growth at 20 ppm [7] | pest or weed control at 200 ppm [1] | pest or weed control at 200 ppm [2] | pest or weed control at 200 ppm [3] | inhibition of growth at 60 ppm [4] | pest or weed control at 200 ppm [5]

C#Cc1cnc2c(Cl)cc(OC(SC)C(=O)NC(C)(C#CC)CC)cc2c1 (stereo not drawn) [Example 121]
≥ 60%: inhibition of growth at 20 ppm [7] | pest or weed control at 200 ppm [1] | pest or weed control at 200 ppm [2] | pest or weed control at 200 ppm [3] | inhibition of growth at 60 ppm [4] | pest or weed control at 200 ppm [5]

C#Cc1cnc2c(Cl)cc(OC(SC)C(=O)NC(C)(C)C#CCCCCl)cc2c1 (stereo not drawn) [Example 123]
≥ 60%: pest or weed control at 200 ppm [1] | pest or weed control at 200 ppm [2] | pest or weed control at 200 ppm [3] | inhibition of growth at 60 ppm [4] | pest or weed control at 200 ppm [5] | pest or weed control at 200 ppm [6]

C#Cc1cnc2ccc(OC(SC)C(=O)NC3(C(OC)OC)CCC3)cc2c1 (stereo not drawn) [Example 153]
≥ 60%: inhibition of growth at 20 ppm [7] | pest or weed control at 200 ppm [1] | pest or weed control at 200 ppm [2] | pest or weed control at 200 ppm [3] | inhibition of growth at 60 ppm [4] | pest or weed control at 200 ppm [5]

C#Cc1cnc2ccc(OC(SC)C(=O)NCCO)cc2c1 (stereo not drawn) [Example 194]
≥ 60%: inhibition of growth at 20 ppm [7] | pest or weed control at 200 ppm [1] | pest or weed control at 200 ppm [2] | pest or weed control at 200 ppm [5]

C#Cc1cnc2ccc(OC(SC)C(=O)NC(C)(C#N)CSC)cc2c1 (stereo not drawn) [Example 67]
≥ 60%: inhibition of growth at 20 ppm [7] | pest or weed control at 200 ppm [2] | pest or weed control at 200 ppm [3] | inhibition of growth at 60 ppm [4] | pest or weed control at 200 ppm [5] | pest or weed control at 200 ppm [6]

C#Cc1cnc2ccc(OC(SC)C(=O)NC(C)(C)C#CCCOC)cc2c1 (stereo not drawn) [Example 103]
≥ 60%: pest or weed control at 200 ppm [1] | pest or weed control at 200 ppm [2] | pest or weed control at 200 ppm [3] | pest or weed control at 200 ppm [5] | pest or weed control at 200 ppm [6]
